Data as given in patent publication US9783536B2, “Nitrogen-containing heterocyclic compound or salt thereof” (FUJIFILM Corporation, priority 2013, dated 2017).
pIC50: −log10 of the molar value. Read-outs that look alike come from different tables or passages of the source.

Legend:
[1] = molecular target: T1, human PI3Kα protein (Homo sapiens, UniProt P42336); assay: PI3Kα enzyme assay (ADP-Glo); assay type: biochemical; conditions: read-out: PI3Kα enzyme inhibitory activity
T1 construct: purchased Carna Biosciences, Inc; host or cells: baculovirus expression system
T1 sequence (P42336 whole entry): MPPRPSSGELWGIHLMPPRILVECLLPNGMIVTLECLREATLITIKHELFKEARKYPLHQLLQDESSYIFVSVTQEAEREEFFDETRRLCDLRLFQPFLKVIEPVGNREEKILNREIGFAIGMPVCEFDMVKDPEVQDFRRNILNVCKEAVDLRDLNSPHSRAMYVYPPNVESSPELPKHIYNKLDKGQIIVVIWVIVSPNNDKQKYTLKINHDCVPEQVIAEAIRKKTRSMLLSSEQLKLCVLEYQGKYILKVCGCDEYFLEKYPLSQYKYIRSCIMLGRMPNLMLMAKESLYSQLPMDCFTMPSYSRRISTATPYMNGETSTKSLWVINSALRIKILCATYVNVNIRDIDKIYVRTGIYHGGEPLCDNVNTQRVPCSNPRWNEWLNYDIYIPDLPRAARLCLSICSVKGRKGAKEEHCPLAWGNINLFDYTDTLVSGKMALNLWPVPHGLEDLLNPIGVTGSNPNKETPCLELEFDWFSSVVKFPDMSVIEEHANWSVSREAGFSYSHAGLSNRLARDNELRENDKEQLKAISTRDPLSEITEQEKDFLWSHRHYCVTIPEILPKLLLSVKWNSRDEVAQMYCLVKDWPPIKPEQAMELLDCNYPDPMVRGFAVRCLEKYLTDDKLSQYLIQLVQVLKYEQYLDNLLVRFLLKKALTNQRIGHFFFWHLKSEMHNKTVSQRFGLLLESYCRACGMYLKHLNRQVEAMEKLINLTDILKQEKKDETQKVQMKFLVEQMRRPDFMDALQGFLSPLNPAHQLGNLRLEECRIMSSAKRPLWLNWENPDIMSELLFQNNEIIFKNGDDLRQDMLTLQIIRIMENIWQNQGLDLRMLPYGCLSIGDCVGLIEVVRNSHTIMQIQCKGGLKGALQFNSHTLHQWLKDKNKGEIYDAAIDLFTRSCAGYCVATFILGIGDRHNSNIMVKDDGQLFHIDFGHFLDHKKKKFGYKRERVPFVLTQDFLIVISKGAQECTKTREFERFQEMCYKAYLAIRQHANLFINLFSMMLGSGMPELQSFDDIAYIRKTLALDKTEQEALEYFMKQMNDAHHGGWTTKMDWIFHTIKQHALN
T1 sequence (P27986 whole entry partner): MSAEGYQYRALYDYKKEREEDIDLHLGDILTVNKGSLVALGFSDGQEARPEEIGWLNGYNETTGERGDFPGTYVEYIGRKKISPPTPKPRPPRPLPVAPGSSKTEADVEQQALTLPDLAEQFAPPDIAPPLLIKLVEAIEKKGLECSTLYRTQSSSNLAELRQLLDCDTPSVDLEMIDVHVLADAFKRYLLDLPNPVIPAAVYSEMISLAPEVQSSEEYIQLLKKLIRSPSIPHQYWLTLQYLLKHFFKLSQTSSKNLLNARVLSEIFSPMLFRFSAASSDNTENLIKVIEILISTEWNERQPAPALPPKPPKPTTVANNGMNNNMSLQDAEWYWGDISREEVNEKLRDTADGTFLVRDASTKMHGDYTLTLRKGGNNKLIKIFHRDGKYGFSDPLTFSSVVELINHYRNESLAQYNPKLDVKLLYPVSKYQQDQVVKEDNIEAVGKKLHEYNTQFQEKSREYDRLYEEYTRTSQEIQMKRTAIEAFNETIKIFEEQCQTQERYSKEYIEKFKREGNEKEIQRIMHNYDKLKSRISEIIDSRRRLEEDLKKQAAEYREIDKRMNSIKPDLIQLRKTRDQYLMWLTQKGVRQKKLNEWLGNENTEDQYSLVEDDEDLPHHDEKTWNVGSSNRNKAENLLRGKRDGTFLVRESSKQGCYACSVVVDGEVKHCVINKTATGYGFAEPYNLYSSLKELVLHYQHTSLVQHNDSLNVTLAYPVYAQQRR
Experimental: In a PI3Kα enzyme assay, a product (manufactured by Carna Biosciences, Inc.) obtained by biotinylating a human PI3Kα protein produced by using a baculovirus expression system was used. In addition, in the detection of enzyme activity, ADP-GLO KINASE ASSAY (trade name, manufactured by PROMEGA Corporation) was used.
10 μL of a reaction liquid (4.5 nmol/L PI3Kα, 40 mmol/L Tris-HCl, 20 mmol/L MgCl2, 0.1% BSA, pH 7.5) including the human PI3Kα protein and a test compound having a predetermined concentration was allowed to stand at room temperature for 15 minutes. Then, 5 μL of a mixture liquid of L-α-phosphatidylinositol 4,5-diphosphate (PIP2) (manufactured by Sigma-Aldrich Co. LLC.) and ATP (manufactured by Sigma-Aldrich Co. LLC.), which are substrates, was added thereto such that final concentrations thereof became 50 μmol/L and 100 μmol/L, respectively, and an enzyme reaction was performed by allowing to stand at 25° C. for 60 minutes.
After the reaction, the enzyme reaction was stopped by adding 15 μL of an ADP-GLO REAGENT (trade name, manufactured by PROMEGA Corporation) thereto and allowing to stand at room temperature for 60 minutes. Then, 30 μL of a KINASE DETECTION REAGENT (trade name, manufactured by PROMEGA Corporation) was added thereto, followed by allowing to stand at room temperature for 40 minutes, and ADP produced by the enzyme reaction was quantified by emission intensity.
ENVISION (trade name, manufactured by Perkin Elmer Inc.) was used for the measurement of the emission intensity.
(§1) The inhibitory activities of the compounds were evaluated using IC50 (50% inhibitory concentration). The IC50 was calculated using XLFIT (trade name, manufactured by ID Business Solutions).

[2] = molecular target: T2, GST fusion human ERK2 protein (Homo sapiens, UniProt P28482); assay: ERK2 enzyme assay (2); assay type: biochemical; conditions: read-out: ERK2 enzyme inhibitory activity (2)
T2 construct: purchased Carna Biosciences, Inc; host or cells: E. coli expression system
T2 sequence (P28482 whole entry, the tested form may be a part): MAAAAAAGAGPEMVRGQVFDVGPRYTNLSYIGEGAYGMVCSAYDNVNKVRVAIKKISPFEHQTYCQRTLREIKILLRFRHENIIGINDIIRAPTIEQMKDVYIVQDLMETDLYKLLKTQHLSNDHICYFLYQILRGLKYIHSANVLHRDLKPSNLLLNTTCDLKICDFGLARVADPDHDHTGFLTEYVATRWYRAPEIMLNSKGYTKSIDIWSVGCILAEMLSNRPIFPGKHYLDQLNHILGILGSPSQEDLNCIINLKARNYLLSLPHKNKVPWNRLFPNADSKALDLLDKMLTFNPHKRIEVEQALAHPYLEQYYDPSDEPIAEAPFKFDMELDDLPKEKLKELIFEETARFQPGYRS
Experimental: In an ERK2 enzyme assay, GLUTATHIONE S-TRANSFERASE (GST) FUSION HUMAN ERK2 PROTEIN (manufactured by Carna Biosciences, Inc.), which was produced by using an E. coli expression system, was used.
12 μL of a reaction liquid (1.25 nmol/L ERK2, 100 mmol/L Hepes, 10 mmol/L MgCl2, 1.5 mmol/L DTT, 0.003% Brij35, pH 7.5) including ERK2 protein and a test compound having a predetermined concentration was allowed to stand at room temperature for 15 minutes. Then, 3 μL of a mixture liquid of FL-PEPTIDE8 (5-FAM-IPTSPITTTYFFFKKK-COOH) (manufactured by Caliper Life Sciences), which is substrate peptide, and ATP (manufactured by Sigma-Aldrich Co. LLC.) was added thereto such that the final concentrations thereof became 4.25 μmol/L and 1 mmol/L, respectively, and an enzyme reaction was performed by allowing to stand at 25° C. for 120 minutes.
After the reaction, the enzyme reaction was stopped by adding 30 μL of a reaction stopper liquid (100 mmol/L HEPES, 11.2 mmol/L EDTA, 5.6% Brij35, pH 7.5) including a 0.5% COATING REAGENT 8 (trade name, manufactured by Perkin Elmer Inc.) thereto. Then, phosphorylated peptide and non-phosphorylated peptide were separated using LABCHIP EZ READER (trade name, manufactured by Caliper Life Sciences), and the porportion of the phosphorylated peptide was quantified.
as §1

Row | Structure (SMILES) | pIC50 [1] | pIC50 ([2]; ERK2 enzyme assay (2)) | pIC50 [2]
1 | CC(C)c1cnnc(Nc2ccc3ncc(-c4cn(C)nc4NC4CNC4)cc3n2)c1 [Example 0826] | > 6.00 | > 6.00 | –
2 | CC(C)c1cnnc(Nc2ccc3ncc(N4CCC4)cc3n2)c1 [Example 0847, 7-(Azetidin-1-yl)-N-(5-isopropylpyridazin-3-yl)-1,5-naphthyridine-2-amine] | 5.00 to 6.00 | > 6.00 | –
3 | CC(C)c1cnnc(Nc2ccc3ncc(-c4cnn(CC5CCN(C(=O)N6CCCCC6)CC5)c4)cc3n2)c1 [Example 0533] | > 6.00 | > 6.00 | –
4 | CO[C@H]1CCC[C@@H]1Nc1cnc2ccc(Nc3cc(C(C)C)cnn3)nc2c1 [Example 0894] | > 6.00 | 5.00 to 6.00 | –
5 | CC(C)c1cnnc(Nc2ccc3ncc(-c4cnn(Cc5ccc(N)nc5)c4)cc3n2)c1 [Example 0464] | > 6.00 | > 6.00 | –
6 | Cc1cn(-c2cnc3ccc(Nc4cc(C(C)C)cnn4)nc3c2)c(C)n1 [Example 0698, 7-(2,4-dimethyl-1H-imidazol-1-yl)-N-(5-isopropylpyridazin-3-yl)-1,5-naphthyridine-2-amine] | 5.00 to 6.00 | > 6.00 | –
7 | CCC(CC)c1cnnc(Nc2ccc3ncc(-c4cnn(CCOC5CNC5)c4)cc3n2)c1 [Example 0816] | > 6.00 | > 6.00 | –
8 | CC(C)c1cnnc(Nc2ccc3ncc(-c4cn(C)nc4CN4CCN(c5cccnc5)CC4)cc3n2)c1 [Example 0910] | > 6.00 | – | > 6.00
9 | CC(C)c1cnnc(Nc2ccc3ncc(-c4cnn(CC5CCN(C(=O)C6CC6)CC5)c4)cc3n2)c1 [Example 0534] | > 6.00 | > 6.00 | –
10 | CC(C)c1cnnc(Nc2ccc3ncc(-c4cnn(CCN5CCC5)c4)cc3n2)c1 [Example 0611] | > 6.00 | > 6.00 | –
11 | CC(C)c1cnnc(Nc2ccc3ncc(-c4cnn(CCCN5CC6(CCO6)C5)c4)cc3n2)c1 [Example 0704, 7-(1-(3-(1-Oxa-6-azaspiro[3.3]heptan-6-yl)propyl)-1H-pyrazol-4-yl)-N-(5-isopropylpyridazin-3-yl)-1,5-naphthyridine-2-amine] | > 6.00 | > 6.00 | –
12 | COCC(C)(C)c1cnnc(Nc2ccc3ncc(-c4cnn(C)c4)cc3n2)c1 [Example 0562] | > 6.00 | > 6.00 | –
13 | CC(=O)NCCc1cn(-c2cnc3ccc(Nc4cc(C(C)C)cnn4)nc3c2)cn1 [Example 0504, N-(2-(1-(6-((5-isopropylpyridazin-3-yl)amino)-1,5-naphthyridin-3-yl)-1H-imidazol-4-yl)ethyl)acetamide] | > 6.00 | > 6.00 | –
14 | CC(C)c1cnnc(Nc2ccc3ncc(-c4cnn(CCCN5CC(NC(=O)OC(C)(C)C)C5)c4)cc3n2)c1 [Example 0693] | > 6.00 | > 6.00 | –
15 | CC(C)c1cnnc(Nc2ccc3ncc(-c4cn(C)nc4N4CCC(=O)N(C)CC4)cc3n2)c1 [Example 0935, 1-(4-(6-((5-isopropylpyridazin-3-yl)amino)-1,5-naphthyridin-3-yl)-1-methyl-1H-pyrazol-3-yl)-4-methyl-1,4-diazepan-5-one] | > 6.00 | – | 5.00 to 6.00
16 | CC(C)c1cnnc(Nc2ccc3ncc(C4=CCN(C)CC4)cc3n2)c1 [Example 0884, N-(5-isopropylpyridazin-3-yl)-7-(1-methyl-1,2,3,6-tetrahydropyridin-4-yl)-1,5-naphthyridine-2-amine] | 5.00 to 6.00 | > 6.00 | –
17 | CC(C)c1cnnc(Nc2ccc3ncc(NS(C)(=O)=O)cc3n2)c1 [Example 0840, N-(6-((5-isopropylpyridazin-3-yl)amino)-1,5-naphthyridin-3-yl)methane sulfonamide] | 5.00 to 6.00 | 5.00 to 6.00 | –

Row | Structure (SMILES) | pIC50 [1] | pIC50 ([2]; ERK2 enzyme assay (2)) | pIC50 [2]
18 | Cn1cc(-c2cnc3ccc(Nc4cc(C5CC5)cnn4)nc3c2)cn1 [Example 0564] | > 6.00 | > 6.00 | –
19 | Cc1ccnnc1Nc1ccc2ncc(-c3cnn(C)c3)cc2n1 [Example 0489] | 4.30 to 5.00 | 5.00 to 6.00 | –
20 | CC(C)c1cnnc(Nc2ccc3ncc(-n4cnc5ccccc54)cc3n2)c1 [Example 0512] | 5.00 to 6.00 | > 6.00 | –
21 | CC(C)c1cnnc(Nc2ccc3ncc(-c4cccn(C)c4=O)cc3n2)c1 [Example 0595, 3-(6-((5-Isopropylpyridazin-3-yl)amino)-1,5-naphthyridin-3-yl)-1-methylpyridin-2(1H)-one] | 5.00 to 6.00 | > 6.00 | –
22 | CC(C)c1cnnc(Nc2ccc3ncc(-c4cnn(C)c4)c(-c4cccnc4)c3n2)c1 [Example 0954, N-(5-isopropylpyridazin-3-yl)-7-(1-methyl-1H-pyrazol-4-yl)-8-(pyridin-3-yl)-1,5-naphthyridine-2-amine] | > 6.00 | – | > 6.00
23 | CCn1cc(-c2cnc3ccc(Nc4cc(C(C)C)cnn4)nc3c2)ccc1=O [Example 0596, 1-ethyl-5-(6-((5-isopropylpyridazin-3-yl)amino)-1,5-naphthyridin-3-yl)pyridin-2(1H)-one] | > 6.00 | > 6.00 | –
24 | CC(C)c1cnnc(Nc2ccc3ncc(-c4cn(C)nc4COC4COC4)cc3n2)c1 [Example 0911, N-(5-isopropylpyridazin-3-yl)-7-(1-methyl-3-((oxetan-3-yloxy)methyl)-1H-pyrazol-4-yl)-1,5-naphthyridine-2-amine] | > 6.00 | – | > 6.00
25 | COc1cccc(Cn2cc(-c3cnc4ccc(Nc5cc(C(C)C)cnn5)nc4c3)cn2)n1 [Example 0412, N-(5-isopropylpyridazin-3-yl)-7-(1-((6-methoxypyridin-2-yl)methyl)-1H-pyrazol-4-yl)-1,5-naphthyridine-2-amine] | > 6.00 | > 6.00 | –
26 | CC(C)c1cnnc(Nc2ccc3ncc(-c4ccc(O)nc4)cc3n2)c1 [Example 0592] | > 6.00 | > 6.00 | –
27 | CC(C)c1cnnc(Nc2ccc3ncc(NC4CN(C(=O)OC(C)(C)C)C4)cc3n2)c1 [Example 0891] | 5.00 to 6.00 | > 6.00 | –
28 | CC(C)c1cnnc(Nc2ccc3ncc(-c4cnn(Cc5ccccc5N)c4)cc3n2)c1 [Example 0705, 7-(1-(2-aminobenzyl)-1H-pyrazol-4-yl)-N-(5-isopropylpyridazin-3-yl)-1,5-naphthyridine-2-amine] | > 6.00 | > 6.00 | –
29 | CC(C)c1cnnc(Nc2ccc3ncc(-c4cnn(CC5CC5)c4)cc3n2)c1 [Example 0581] | > 6.00 | > 6.00 | –
30 | CC(C)c1cnnc(Nc2ccc3ncc(-c4cn(C)nc4-c4ccnc(N)c4)cc3n2)c1 [Example 0752, 7-(3-(2-aminopyridin-4-yl)-1-methyl-1H-pyrazol-4-yl)-N-(5-isopropylpyridazin-3-yl)-1,5-naphthyridine-2-amine] | > 6.00 | > 6.00 | –
31 | CCOC1CN(CCCn2cc(-c3cnc4ccc(Nc5cc(C(C)C)cnn5)nc4c3)cn2)C1 [Example 0676, N-(5-isopropylpyridazin-3-yl)-7-(1-(3-(3-ethoxyazetidin-1-yl)propyl)-1H-pyrazol-4-yl)-1,5-naphthyridine-2-amine] | > 6.00 | > 6.00 | –
32 | CC(C)c1cnnc(Nc2ccc3ncc(-c4cnn(Cc5cscn5)c4)cc3n2)c1 [Example 0449] | > 6.00 | > 6.00 | –
33 | Cc1nn(C)cc1-c1cnc2ccc(Nc3cc(C(C)C)no3)nc2c1 [Example 0848, N-(7-(1,3-dimethyl-1H-pyrazol-4-yl)-1,5-naphthyridin-2-yl)-3-isopropylisoxazole-5-amine] | 5.00 to 6.00 | 5.00 to 6.00 | –
